{
  "source": "patent US11479770B2",
  "about": "“Use of p38 inhibitors to reduce expression of DUX4” (Fulcrum Therapeutics, Inc., priority 2017, dated 2022)",
  "key": {"[1]": {"conditions": "rat; oral; clinically relevant plasma exposures", "procedure": "Male Sprague Dawley rats (6-8 weeks of age) were supplied by Hilltop Lab Animals, Inc. (USA). Following arrival at Wuxi AppTec, animals were assessed for their general health by a member of veterinary staff or other designated personnel. Animals were acclimated for at least 2 days (upon arrival at WuXi AppTec) before commencement of the study. Animals were individually housed during acclimation and throughout the study. The animal room environment was controlled according to facility operation (target conditions: temperature 20 to 26° C., relative humidity 30 to 70%, 12-hour cycle of lights on and off). Lights, temperature and relative humidity are constantly monitored by AmegaView Environmental Monitoring System. […] Water (reverse osmosis) was provided to the animals ad libitum. […] In study #FULTH-20171120 rats were fasted overnight prior to drug administration: rats were allowed free access to water at all times and were fed 4 hours post dosing. For study #FULTH-20171228 rats were allowed ad-libitum access to food and water throughout the study.\nDose volume was determined by measured body weight prior to dosing. […] Feeding condition: overnight fast, food return 4 hours after dosing.\nBlood samples for PK: Approximately 100 μl of blood sample was obtained via jugular vein or tail vein at each pre-defined time point. […]"}, "[2]": {"system": "DUX4 dependent target genes", "test": "Predicted reduction of DUX4 dependent target genes in FSHD patient muscle", "parameters": "species or system human", "conditions": "from rat muscle concentrations and in vitro FSHD myotube data", "description": "P38 system target engagement persisted for at least 12 hours following the single dose of FTX-1821 (FIG. 15). P38 system target engagement in trapezius muscle was maximal when plasma and muscle concentrations of FTX-1821 were greater than 20 ng.mL or ng.g and declined at timepoints when exposures decreased. The muscle concentrations of FTX-1821 achieved in the rat study are predicted to result in >70% reduction at Cmax in DUX4 dependent target genes in FSHD patient muscle biopsies based upon in vitro data in FSHD myotubes (above)."}, "[3]": {"system": "DUX4 target genes", "test": "RNA-seq profiling of FSHD myotubes", "format": "cell-based, human", "conditions": "1 μM", "from_the_text": "The 40 bp single-end reads from Illumina had good quality by checking with FastQC (http://www.bioinformatics.babraham.ac.uk/projects/fastqc/). Reads were mapped to hg19 using TopHat v2.1.1 (Kim et al., 2013) with options as “solexa1.3-quals” mode and “no-novel-juncs.” The gene model for TopHat was created by merging known gene in gtf format with kgXref table. Both known gene and kgXref were downloaded from UCSC table browser in hg19 assembly. The read counts were obtained using featureCounts function from Subread package with strandness option as −r 2. Reads were normalized with DESeq2 (Love et al., 2014).\nThe 40 bp single-end reads from Illumina had good quality by checking with FastQC (http://www.bioinformatics.babraham.ac.uk/projects/fastqc/). Reads were mapped to hg19 using TopHat v2.1.1. The gene model for TopHat was created by merging knownGene in gtf format with kgXref table. Both known gene and kgXref were downloaded from UCSC table browser in hg19 assembly. The read counts were obtained using feature Counts function from Subread package with strandness option as -r 2. Reads were normalized with DESeq2. […] Calculated standard RPKM expression values. […]\nIn addition, gene expression was also determined in wild type myotubes treated with DMSO. Three replicates for each condition were analyzed by RNA-seq and genes were clustered by the direction and intensity of change."}, "[4]": {"system": "MBD3L2 mRNA (DUX4 downstream gene)", "test": "MBD3L2 mRNA expression (qPCR) in FSHD myotubes", "format": "cell-based, human", "conditions": "1 μM", "description": "On day 0, the media was changed to differentiation media. Plates were removed from the incubator and the growth medium was aspirated, plates were washed once with PBS, 100 μL, for 96-wells and 1 mL for a 6-well plate, 100 μL, or 2 mL of differentiation medium was added per well, 96- or 6-well respectively. Antisense oligonucleotides or drug were added at the desired concentration, and the plates were put back in the incubator and incubated for 3-4 days.\nCells were removed from the incubator and media aspirated. Cells were quickly lysed following one of the following protocols: for lysis in 96-well plates, direct lysis and one-step RT-Preamp qPCR was performed according to the protocol described below. For each 96-well, a mix containing: 19.5 μL Roche Realtime Ready lysis buffer, 0.25 μL RNAse inhibitor, 0.25 μL DNAseI (from Thermo not the included one in the kit) was prepared. 20 μL of the mix was added to each well, mixed 5 times, and incubated 5 minutes at RT or alternatively shaken vigorously for 15 minutes. Lysis was observed under the microscope. Samples were frozen −80° C. at least for 15 minutes.\n1-step RT-Preamplification was used for detection of DUX4 downstream genes, i.e., MBD3L2, ZSCAN4, LEUTX, TRIM43, KHDC1L, and POL2RA-VIC was used as endogenous control. Per 10 μL reaction, the reaction mix included: 2.25 μL of RNA (1:10 dilution lysate), 5 μL of Taqman Pre-Amp Master Mix (2×), 0.25 μL of RT enzyme mix (40×), 2.5 μL of Taqman probe set (0.2×)*. * For pooling the TaqMan Assays, equal volumes of each 20× TaqMan® Gene Expression Assay were used, and up to 100 assays were combined. For example, to pool 50 TaqMan assays, 10 μL of each assay were combined in a microcentrifuge tube. The pooled TaqMan assays were diluted using 1× TE buffer so that each assay was at a final concentration of 0.2×. For the above example, 500 μL of 1× TE buffer was added to the pooled TaqMan assays for a total final volume of 1 mL. The QuantStudio7 protocol was used at 48° C. 15 min, 95° C. 10 min, 10 cycles: 95° C. 15 sec, 60° C. 4 min, and 4° C. infinite Samples were then diluted to 50 μL and continued with the qPCR step. Per 10 μL reaction, the reaction mix included: 2 μL of Preamp dilution, 5 μL of Fast Advanced Taqman Master Mix (2×), 0.5 μL of Taqman probe set (20×), and 2.5 μL of H2O. When multiplexing, the volume was adjusted to 10 μL total. The following program was run on the QuantStudio7: 50° C. for 2 min, 95° C. for 30 sec, 40×, 95° C. for 5 sec, 60° C. for 30 sec, and plates were read as per the manufacturers specifications (Thermo).\nWild type myotubes and mature patient-derived FSHD myotubes that express DUX4 protein were treated with DMSO vehicle control or multiple concentrations of various p38α/β inhibitors with different ranges of isoform and kinome selectivity, including SB239063 (FIG. 4A), VX-702 (FIG. 4B), Pamapimod (FIG. 4C), and TAK-715 (FIG. 4D). After treatment, the control and treated cells were processed for realtime PCR quantification of MBD3L2 mRNA (DUX4 downstream gene) and myogenin (MYOG) mRNA (control) expression."}, "[5]": {"system": "p38 system (phospho MK2 to total MK2 ratio)", "test": "Rat PD: phospho MK2 to total MK2 ratio in trapezius muscle", "format": "in vivo", "description": "Approximately 50 mg of muscle tissue was placed on dry ice. Muscle samples were cut, as needed to obtain the 50 mg weight using a clean razor blade per specimen. 50 mg of muscle tissue was placed into a pre-labeled TT1 Covaris bag (Covaris, MA, USA) and kept on dry ice. The TT1 Covaris bag was submerged in liquid nitrogen and the sample was cryofractured in the Covaris cryoPREP (Covaris, MA, USA) on setting “5”. The TT1 bag was rotated 180° and steps 2-a were repeated. The sample was transferred into a pre-weighed/labeled tube and maintained on dry ice until all samples were prepared. Sample weights were recorded. RIPA lysis buffer was prepared (R0278-500ML, Sigma, MO, USA). For 10 ml, two Roche PhosSTOP phosphatase inhibitor tablets and one Roche EDTA-free protease inhibitor tablet were added. To the cryofractured material, 8 μl per mg of RIPA buffer were added to each tube and each tube was vortexed until the lysate was homogeneous. Lysates were maintained on ice until all samples were processed. The lysate was cleared by centrifugation at 13,000 g for 5 minutes at 4° C. The supernatant was transferred to a new tube and snap frozen in liquid nitrogen (setting aside […] for protein assay). To measure the protein content of each sample, a Bradford DC protein assay (5000112, Bio-Rad, CA, USA) was conducted. Samples were diluted 1:20 in PBS for protein assessment.\nThe homogenized trapezius muscle lysate was assessed using an internally developed Meso Scale Discovery (MSD) multiplexed phospho MK2/total MK2 immunoassay (Meso Scale Diagnostics, MD, USA). For each sample, 50 μL of muscle lysate, equal to 50 μg of protein, was loaded onto the MSD assay. Protein concentrations in muscle lysates were determined by a Bradford DC protein assay as described above. Samples were assessed in duplicate. Muscle samples were incubated on a pre-coated MSD plate overnight at 4° C. while on an orbital shaker (300 rpm) and assessed the following morning."}, "[6]": {"conditions": "rat, single oral dose 0.3 mg/kg"}},
  "data": [
    {"smiles": "Cc1c(F)cc(C(=O)NC2CC2)cc1-c1ccc(C(=O)NCC(C)(C)C)cn1", "note": "[FTX-1821]", "values": [
      {"measurement": "Muscle to plasma exposure ratios", "setting": "[1]", "result": "≥ 1"},
      {"measurement": "predicted reduction at Cmax in DUX4 dependent target genes in FSHD patient muscle biopsies", "setting": "[2]", "result": "> 70", "unit": "%"},
      {"measurement": "non-DUX4-regulated genes in total signature", "setting": "[3]; moderate fold changes", "result": "9/86"},
      {"measurement": "expression of differentially expressed (DUX4 pathway) genes by RNA-seq", "setting": "[3]; vs DMSO and wild type", "result": "normalized"},
      {"measurement": "MBD3L2 mRNA in FSHD1 and FSHD2 primary patient myoblast lines", "setting": "[4]; to levels similar to healthy control lines", "result": "reduction"},
      {"measurement": "MBD3L2 expression levels in four FSHD patient lines", "setting": "[4]; FTCE-016, -020, -197, -196 myotubes, to levels similar to healthy controls", "result": "reduced"},
      {"measurement": "plasma concentration at maximal inhibition of the p38 system in muscle", "setting": "[5]; rat", "result": "greater than 20 ng/mL"},
      {"measurement": "plasma and muscle concentrations at maximal p38 system target engagement", "setting": "[5]; rat trapezius muscle", "result": "greater than 20 ng.mL or ng.g"},
      {"measurement": "time to significant decrease of phospho MK2 to total MK2 ratio", "setting": "[5]; rat trapezius, single oral dose 0.3 mg/kg", "result": "≤ 1", "unit": "h"},
      {"measurement": "persistence of p38 system target engagement", "setting": "[5]; [6]", "result": "at least 12 hours"},
      {"measurement": "phospho MK2 to total MK2 ratio in trapezius muscle", "setting": "[5]; [6]", "result": "significantly decreased"}
    ]}
  ]
}
